{
  "source": "patent US20190337989A1",
  "about": "“IMMUNITY INDUCER” (priority 2016, published 2019)",
  "key": {"avian influenza virus [1]": {"test_system": "avian influenza virus", "set-up": "species or system mice", "settings": "mouse, in vivo, iv"}, "avian influenza virus [2]": {"test_system": "avian influenza virus", "set-up": "species or system Balb/c mice", "settings": "mouse, in vivo, ip"}},
  "note": "Values joined by “and” are separate entries in the source; they are usually repeats but may differ in a detail not shown here. Equal entries are not always repeated. “Also recorded” adds a separate entry of the source. Where two headings read alike, the source gives them in different places.",
  "data": [
    {"substance": "Core-[PEG-STQKAID]4 [avian influenza MAP4]", "values": [
      {"measurement": "induction of IgG and IgM antibodies against the avian influenza virus", "setting": "avian influenza virus [1]", "value": "found to be induced; also recorded: enabled induction of IgG and IgM antibodies"},
      {"measurement": "IgG concentration", "setting": "avian influenza virus [2]", "value": "higher than 100 ng/ml"},
      {"measurement": "induction of IgG and IgM antibodies against the avian influenza virus", "setting": "avian influenza virus [2]", "value": "enabled induction of IgG and IgM antibodies"},
      {"measurement": "mice in which IgM antibodies were induced", "setting": "avian influenza virus [2]", "value": "5 out of 5 mice and increased in all mice"},
      {"measurement": "mice with apparent increase in the IgG level", "setting": "avian influenza virus [2]", "value": "3 mice out of 5 mice"},
      {"measurement": "subclasses exhibiting increased IgG antibody levels", "setting": "avian influenza virus [2]", "value": "IgG and IgG3; also recorded: IgG1 and IgG3"},
      {"measurement": "total level of IgG antibody converted to anti-FLAG antibody", "setting": "avian influenza virus [2]", "value": "157 ng/mL and 154 ng/mL and 106 ng/mL and 122 ng/mL and 148 ng/mL and 83 ng/mL"}
    ]}
  ]
}
